Source: patent US20250049791A1, “Synthesis of MEK7 Inhibitors and methods of Use Thereof” (Northwestern University, priority 2023, published 2025)
Read-outs that look alike come from different tables or passages of the source.

Legend:
MEK6 = molecular target: T1, MEK6 (Homo sapiens, UniProt P52564); test: Additional selectivity assay, MEK6 (FIG. 9); format: binding
T1 sequence (P52564 1-334): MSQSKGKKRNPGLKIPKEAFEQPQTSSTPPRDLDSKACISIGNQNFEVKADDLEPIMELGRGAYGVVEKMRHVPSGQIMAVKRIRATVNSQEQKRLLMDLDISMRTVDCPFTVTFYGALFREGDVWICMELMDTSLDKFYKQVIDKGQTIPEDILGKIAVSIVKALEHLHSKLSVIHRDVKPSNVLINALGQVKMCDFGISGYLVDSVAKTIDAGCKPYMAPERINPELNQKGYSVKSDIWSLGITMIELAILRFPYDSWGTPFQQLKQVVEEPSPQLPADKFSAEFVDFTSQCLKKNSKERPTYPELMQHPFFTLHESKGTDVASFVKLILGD

[1] = molecular target: T2, recombinant active full-length human MEK7 (Homo sapiens, UniProt O14733); test: ADP-Glo kinase activity assay, MEK7 with JNK1 substrate; format: biochemical; details: for IC50: 30 min preincubation
T2 construct: recombinant active full-length human MEK7 (Carna Biosciences); purchased Carna Biosciences
T2 sequence (O14733 1-419): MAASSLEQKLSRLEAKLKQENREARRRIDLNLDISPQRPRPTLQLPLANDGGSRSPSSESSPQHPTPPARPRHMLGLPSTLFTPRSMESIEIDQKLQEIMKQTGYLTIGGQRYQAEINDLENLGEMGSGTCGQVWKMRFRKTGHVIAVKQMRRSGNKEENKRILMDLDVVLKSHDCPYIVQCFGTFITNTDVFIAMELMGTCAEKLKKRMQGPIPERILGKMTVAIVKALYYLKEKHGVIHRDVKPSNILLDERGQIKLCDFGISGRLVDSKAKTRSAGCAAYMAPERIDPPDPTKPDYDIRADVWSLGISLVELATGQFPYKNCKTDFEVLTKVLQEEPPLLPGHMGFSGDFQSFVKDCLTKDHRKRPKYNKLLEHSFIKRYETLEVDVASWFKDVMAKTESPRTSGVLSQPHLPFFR
Description: Procedure for a 5 μL Kinase reaction using the ADP-Glo Kinase Assay Kit from Promega. Staurosporine was used as the positive control, and DMSO (vehicle) was employed as the negative control. Activity of recombinant active full-length human MEK7 (Carna Biosciences) was measured with recombinant full-length human substrate JNK1 (MAPK8). Using a Mantis, a mixture of MEK7 and JNK1 was dispensed into a 384-well low volume white Proxiplate. For each well, 4 ng of MEK7 and 600 ng of JNK1 in kinase buffer (CST) were used, accounting for 1 μL of this mixture per well. Inhibitor was prepared in a DMSO solution (40 mM). A dose-response dilution was performed in a 384-well Echo transfer plate. Using an Echo Access, 10 nL of each solution was dispensed into the same 384-well low volume white Proxiplate as above. This mixture was allowed to incubate for 30 minutes at room temperature. Using a Mantis, 1 uL of an 8 μM ATP solution was added to each well, and the plate was allowed to incubate for another 1 hour at room temperature. Using the Mantis again, 4 μL of ADP Glo Reagent was dispensed into each well, and the plate was allowed to incubate for 45 min at room temperature. Finally, 9 μL of Kinase Detection Reagent was added manually to each well, and the plate was allowed to incubate for 45 minutes at room temperature. Luminescence was read on a Synergy Neo2 Plate Reader with filter cubes 3 and 114. Integration time was set to 0.20 seconds, gain set to 160, and read height set at 6 mm. All experiments were performed in triplicate on the plate, and at least in one separate technical duplicate was performed.
MEK4 selectivity was performed in the same manner with activated MEK4 (Carna Biosciences). Here, p-38α was employed as the kinase substrate in lieu of JNK1 due to the availability of reagents. […] To probe the ATP-competitive nature of 25, this compound was subjected to a similar assay forgoing the 30 minute incubation time described above (STAR Protocols 2021, 2, 100717). The results are tabulated below in compound characterization. Potency determined by duplicate of triplicates corresponded to a IC50 value, which is in line with the ratio difference observed among other covalent inhibitors (for examples, see Cell Chem. Biol. 2020, 27, 1285).

PAMPA permeability = format: in vitro ADME; details: FIG. 12
MEK3 = molecular target: T3, MEK3 (Homo sapiens, UniProt P46734); test: Additional selectivity assay, MEK3 (FIG. 9); format: binding
T3 sequence (P46734 1-347): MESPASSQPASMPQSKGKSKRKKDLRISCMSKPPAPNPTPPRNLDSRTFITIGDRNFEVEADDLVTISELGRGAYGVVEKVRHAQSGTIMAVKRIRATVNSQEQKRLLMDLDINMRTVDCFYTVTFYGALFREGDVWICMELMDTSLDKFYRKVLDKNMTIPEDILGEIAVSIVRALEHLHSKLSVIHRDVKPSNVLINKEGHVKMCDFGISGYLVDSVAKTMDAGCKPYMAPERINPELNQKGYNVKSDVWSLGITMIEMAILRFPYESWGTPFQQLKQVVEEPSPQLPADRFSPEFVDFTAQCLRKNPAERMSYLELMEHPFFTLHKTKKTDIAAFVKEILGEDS

MEK5 = molecular target: T4, MEK5 (Homo sapiens, UniProt Q13163); test: Additional selectivity assay, MEK5 (FIG. 9); format: binding
T4 sequence (Q13163 1-448): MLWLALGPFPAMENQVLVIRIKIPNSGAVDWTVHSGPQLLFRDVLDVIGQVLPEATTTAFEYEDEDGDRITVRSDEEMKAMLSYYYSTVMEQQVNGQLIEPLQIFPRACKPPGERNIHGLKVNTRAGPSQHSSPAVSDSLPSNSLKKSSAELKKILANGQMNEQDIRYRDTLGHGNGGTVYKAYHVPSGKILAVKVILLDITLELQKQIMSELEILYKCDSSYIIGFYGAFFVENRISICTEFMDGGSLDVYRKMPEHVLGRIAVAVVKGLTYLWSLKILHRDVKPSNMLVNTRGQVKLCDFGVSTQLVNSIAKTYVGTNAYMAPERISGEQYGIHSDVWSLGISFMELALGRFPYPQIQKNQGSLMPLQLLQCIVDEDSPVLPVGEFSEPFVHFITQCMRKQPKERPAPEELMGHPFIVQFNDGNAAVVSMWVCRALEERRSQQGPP

[2] = overall value of two experiments, read-out: MEK7 IC50
[3] = MEK7 IC50, first experiment (IC50±SEM, n=3), first value in brackets
[4] = MEK7 IC50, second experiment (IC50±SEM, n=3), second value in brackets

activity/binding at MEK6 (MEK6) | IC50 [1, 2] | IC50 ([1]; read-out: MEK7 IC50) | IC50 [1, 3] | IC50 [1, 4] | PAMPA cell permeability (PAMPA permeability) | activity/binding at MEK3 (MEK3) | activity/binding at MEK5 (MEK5) | in vitro activity against MAP2K7, in words ([1]; ADP-Glo assay, comparison within the series) | Structure (SMILES)
inactive | 60 nM | 60 nM | 87 ± 41 nM | 34 ± 42 nM | highly membrane permeable | inactive | inactive |  | CNc1cc(Oc2cccc(NC(=O)CCl)c2)ncn1 [Compound 8, 2-chloro-N-(3-((6-(methylamino)pyrimidin-4-yl)oxy)phenyl)acetamide]
inactive |  |  | 230 ± 190 nM | 610 ± 400 nM |  | inactive | inactive | less active than compound 8 | C=CC(=O)Nc1cccc(Oc2cc(NC)ncn2)c1 [Compound 9, N-(3-((6-(methylamino)pyrimidin-4-yl)oxy)phenyl) acrylamide]
 | 360 nM |  | 420 ± 320 nM | 300 ± 150 nM |  |  |  |  | Cc1ccc(CNc2cc(Oc3cccc(NC(=O)CCl)c3)ncn2)cc1 [Compound 36, 2-chloro-N-(3-((6-((4-methylbenzyl)amino)pyrimidin-4-yl)oxy)phenyl)acetamide]
 | 410 nM |  | 200 ± 410 nM | 640 ± 270 nM |  |  |  |  | O=C(CCl)Nc1cccc(Oc2cc(NCc3ccc(C(F)(F)F)cc3)ncn2)c1 [Compound 37, 2-chloro-N-(3-((6-((4-(trifluoromethyl)benzyl)amino)pyrimidin-4-yl)oxy)phenyl)acetamide]
